Literature values as cited in patent US20130344444A1, “PROCESS FOR MAKING LITHOGRAPHIC PRINTING PLATE” (FUJIFILM Corporation, priority 2011, published 2013).

solubility in water	solubility in water (in words)	SMILES
1.0 g/100 mL of water		CCCCCCOCCO [Ethylene glycol mono-n-hexyl ether]
	mutually mixing	CC(C)(C)OCCO [Ethylene glycol mono-t-butyl ether]
4.0 g/100 mL of water		OCc1ccccc1 [Benzyl alcohol, reference compound]

More lines, now with the values behind:

SMILES	solubility in water	solubility in water (in words)
CCCCOCC(C)O (stereo not drawn) [Propylene glycol mono-n-butyl ether]	4.4 g/100 mL of water	
OCCOc1ccccc1 [Ethyleneglycol monophenyl ether, reference compound]	2.7 g/100 mL of water	
CCCCC(CC)COCCOCCO (stereo not drawn) [Diethylene glycol mono-2-ethylhexyl ether]	0.3 g/100 mL of water	
